From patent publication US9290516B2, “Benzobis(thiadiazole) derivative and organic electronics device comprising same” (Ube Industries, Ltd., priority 2012, dated 2016) come the findings set out here.

Where two headings read alike, the source gives them in different places. A value given as a limit tells only on which side of the number the result lay.

As a reminder, the solubility is how much of the substance goes into solution per volume.

What all share (format): physicochemical
Data set [1] in a line: Solubility Experiment 1 (1,2-dichlorobenzene). The following applies: 5 mg in 1.6 g 1,2-dichlorobenzene, heated to 150° C. The protocol: Into a 20-ml glass vessel equipped with a stirring apparatus were placed 5 mg of BBT-(1), and 1.6 g of 1,2-dichlorobenzene.
(§1) On the other hand, using BBT-(11): (FPTBBT) synthesized in Reference Example 1, instead of BBT-(1), the preparation of a solution of BBT-(11) in 1,2-dichlorobenzene was attempted in accordance with [Solubility Experiment 1]. […] The suspension was filtered through a 0.2-μm filter, and then dropped onto a silicon wafer as described above. And then, without any treatment, the solvent component was volatilized, but the formation of a thin film of BBT-(11) was not confirmed. Meanwhile, using BBT-(11), instead of BBT-(1), the preparation of a solution of BBT-(11) in mesitylene was attempted in accordance with [Solubility Experiment 2]. […] The suspension was filtered through a 0.2-μm filter, and then dropped onto a silicon wafer as described above. And then, without any treatment, the solvent component was volatilized, but the formation of a thin film of BBT-(11) was not confirmed.

A short description of data set [2]: Solubility Experiment 2 (mesitylene). The following applies: 5 mg in 1.6 g mesitylene, heated to 100° C. As to the method: Into a 20-ml glass vessel equipped with a stirring apparatus were placed 5 mg of BBT-(1), and 1.6 g of mesitylene.
as §1

The nature of data set [3]: Solubility Experiment 3 (chlorobenzene, visual observation). The following applies: organic solvent or mixture, thermodynamic from solid, 1 mg in 1 mL chlorobenzene. As to the method: 1 mg of each compound shown in Table 1 [BBT-(1)-BBT-(14)] was added to 1 mL of a solvent (chlorobenzene) and the mixture was heated to 100° C. or 140° C., and the solubility was evaluated by visual observation.

Where [4] appears, read: heated to 100° C., read-out: Solubility chlorobenzene (° C.) 100.
The mark [5] stands for this setting: heated to 140° C., read-out: Solubility chlorobenzene (° C.) 140.

With `FC(F)(F)Oc1ccc(-c2ccc(-c3c4c(c(-c5ccc(-c6ccc(OC(F)(F)F)cc6)s5)c5nsnc35)N=S=N4)s2)cc1` [BBT-(1)], the “Solubility in 1,2-dichlorobenzene” value in data set [1] is given as “completely dissolved”. For the same molecule, the Solubility in mesitylene entry in data set [2] is “completely dissolved”. In addition, the solubility in data set [3] (setting [4]) and in data set [3] (setting [5]) was above 1000 µg/mL throughout.

Turning to `FC(F)(F)Oc1cccc(-c2ccc(-c3c4c(c(-c5ccc(-c6cccc(OC(F)(F)F)c6)s5)c5nsnc35)N=S=N4)s2)c1` [BBT-(2)], the solubility in data set [3] (setting [4]) and in data set [3] (setting [5]) was above 1000 µg/mL each time.

Consider `FC(F)(F)Oc1ccccc1-c1ccc(-c2c3c(c(-c4ccc(-c5ccccc5OC(F)(F)F)s4)c4nsnc24)N=S=N3)s1` [BBT-(3)], for which the solubility in data set [3] (setting [4]) and in data set [3] (setting [5]) was above 1000 µg/mL throughout.

Take `CC(F)(F)c1ccc(-c2ccc(-c3c4c(c(-c5ccc(-c6ccc(C(C)(F)F)cc6)s5)c5nsnc35)N=S=N4)s2)cc1` [BBT-(4)]: the figures for the solubility in data set [3] (setting [4]) and in data set [3] (setting [5]) were below 1000 µg/mL and above 1000 µg/mL, respectively.

For `CCCCCCCCCCC(F)(F)c1ccc(-c2ccc(-c3c4c(c(-c5ccc(-c6ccc(C(F)(F)CCCCCCCCCC)cc6)s5)c5nsnc35)N=S=N4)s2)cc1` [BBT-(5)], the solubility in data set [3] (setting [4]) and in data set [3] (setting [5]) was above 1000 µg/mL throughout.

For `CC(F)(F)Oc1ccc(-c2ccc(-c3c4c(c(-c5ccc(-c6ccc(OC(C)(F)F)cc6)s5)c5nsnc35)N=S=N4)s2)cc1` [BBT-(6)], the solubility is below 1000 µg/mL in data set [3] (setting [4]) and above 1000 µg/mL in data set [3] (setting [5]).

`CCCCCCCCCC(F)(F)Oc1ccc(-c2ccc(-c3c4c(c(-c5ccc(-c6ccc(OC(F)(F)CCCCCCCCC)cc6)s5)c5nsnc35)N=S=N4)s2)cc1` [BBT-(7)]: the solubility in data set [3] (setting [4]) and in data set [3] (setting [5]) was above 1000 µg/mL throughout.

For `CC(C)CC(F)c1ccc(-c2ccc(-c3c4c(c(-c5ccc(-c6ccc(C(F)CC(C)C)cc6)s5)c5nsnc35)N=S=N4)s2)cc1` (stereo not drawn) [BBT-(9)], the solubility in data set [3] (setting [4]) is below 1000 µg/mL; in data set [3] (setting [5]), above 1000 µg/mL.

As to `CCCCCCCCCCOC(F)(F)c1ccc(-c2ccc(-c3c4c(c(-c5ccc(-c6ccc(C(F)(F)OCCCCCCCCCC)cc6)s5)c5nsnc35)N=S=N4)s2)cc1` [BBT-(10)], the solubility in data set [3] (setting [4]) and in data set [3] (setting [5]) was above 1000 µg/mL each time.

Consider `FC(F)(F)c1ccc(-c2ccc(-c3c4c(c(-c5ccc(-c6ccc(C(F)(F)F)cc6)s5)c5nsnc35)N=S=N4)s2)cc1` [BBT-(11), reference compound], for which the “Solubility in 1,2-dichlorobenzene” value in data set [1] is “not completely dissolved”. Further, in data set [2], the Solubility in mesitylene result is “not completely dissolved”. Also, the solubility in data set [3] (setting [4]) and in data set [3] (setting [5]) was below 1000 µg/mL throughout.

`Cc1ccc(-c2ccc(-c3c4c(c(-c5ccc(-c6ccc(C)cc6)s5)c5nsnc35)N=S=N4)s2)cc1` [BBT-(12), reference compound]: the solubility in data set [3] (setting [4]) and in data set [3] (setting [5]) was above 1000 µg/mL throughout.

For the molecule `COc1ccc(-c2ccc(-c3c4c(c(-c5ccc(-c6ccc(OC)cc6)s5)c5nsnc35)N=S=N4)s2)cc1` [BBT-(13), reference compound], the solubility is below 1000 µg/mL in data set [3] (setting [4]) and above 1000 µg/mL in data set [3] (setting [5]).

Consider `CCCCCCCCCc1ccc(-c2ccc(-c3c4c(c(-c5ccc(-c6ccc(CCCCCCCCC)cc6)s5)c5nsnc35)N=S=N4)s2)cc1` [BBT-(14), reference compound], for which the solubility in data set [3] (setting [4]) and in data set [3] (setting [5]) was above 1000 µg/mL each time.
